For three compounds, MIC results are on record in DBAASP.

Converted amounts (≈) assume the structure as drawn.

Some test systems named below: Escherichia coli D31; Micrococcus luteus A270; Escherichia coli; Ralstonia solanacearum; Pseudomonas tolaasii; Bacillus thuringiensis.
Test in all cases: ≥ marks a high value that may be exact or a test limit, other limits are often not marked, values filed in µg/mL are converted to µM
Test [1] has as its system Staphylococcus aureus ATCC 29213.
Test [2] has as its system Staphylococcus epidermidis ATCC 12228.
In test [3] the test system is Escherichia coli DH5alpha.
Test [4] concerns Pseudomonas aeruginosa ATCC 27853.
Test [5] relates to Salmonella enterica subsp. arizonae ATCC 13314.
Test [6] deals with Staphylococcus epidermidis KCTC 1917.
In test [7] the test system is Enterococcus faecalis ATCC 51575.
The subject of test [8] is Bacillus subtilis KCTC 3068.
Test [9] concerns Salmonella typhimurium KCTC 1926.
The test system of test [10] is Staphylococcus aureus KCCM 40510.
For test [11], the system named is Enterococcus faecalis KCCM 29212.
In test [12] the test system is Enterococcus faecium ATCC 51559.
For test [13], the system named is Pseudomonas aeruginosa KCTC 1637.
In test [14] the test system is Enterococcus faecium KCCM 12118.
The subject of test [15] is Staphylococcus aureus KCTC 1621.
In test [16] the test system is Escherichia coli KCTC 1682.

For the compound `CC[C@H](C)[C@H](NC(=O)[C@H](CCC(N)=O)NC(=O)[C@@H](NC(=O)CNC(=O)[C@@H](NC(=O)[C@H](CC(C)C)NC(=O)[C@H](CC(C)C)NC(=O)[C@H](Cc1ccccc1)NC(=O)[C@@H]1CCCN1C(=O)[C@@H](N)[C@@H](C)O)C(C)C)[C@@H](C)O)C(=O)N[C@@H](CC(=O)O)C(=O)N[C@@H](CC(C)C)C(=O)N[C@@H](CCCN=C(N)N)C(=O)O` [TPFLLVGTQIDLR], the MIC was found to be 1.2 µM (≈ 1.77 µg/mL) in test [1]; 1.2 µM (≈ 1.77 µg/mL) in [2]; 2.4 µM (≈ 3.53 µg/mL) against Escherichia coli D31; 2.4 µM (≈ 3.53 µg/mL) in test [3]; 4.7 µM (≈ 6.92 µg/mL) against Micrococcus luteus A270; 4.7 µM (≈ 6.92 µg/mL) in [4]. The compound also returned an MIC in test [5] of 2.4 µM (≈ 3.53 µg/mL).
For the compound `CC[C@H](C)[C@H](NC(=O)[C@H](CCCN=C(N)N)NC(=O)[C@H](CC(C)C)NC(=O)[C@@H](N)CC(C)C)C(=O)N[C@@H](C)C(=O)N[C@@H](CC(C)C)C(=O)N[C@@H](CCCN=C(N)N)C(=O)N[C@@H](CCCCN)C(=O)N[C@@H](CCCCN)C(N)=O` [LLRIALRKK], the MIC in test [6] is 3.6 µM (≈ 4 µg/mL); in test [7] it was at least 57.6 µM; in test [8] it was 14.4 µM (≈ 16 µg/mL); in test [9], 7.2 µM (≈ 7.99 µg/mL); in [10], 14.4 µM (≈ 16 µg/mL); in test [11], 28.8 µM (≈ 32 µg/mL). For the same compound, the MIC in test [12] was 7.2 µM (≈ 7.99 µg/mL); in test [13], 7.2 µM (≈ 7.99 µg/mL); in test [14], 28.8 µM (≈ 32 µg/mL); in test [15], 28.8 µM (≈ 32 µg/mL); in test [16], 3.6 µM (≈ 4 µg/mL).
On to `CC[C@H](C)[C@H](NC(=O)[C@H](CCCCN)NC(=O)CNC(=O)[C@H](CC(C)C)NC(=O)[C@@H](NC(=O)[C@H](CCCCN)NC(=O)[C@H](CCCCN)NC(=O)[C@H](CC(C)C)NC(=O)[C@H](CC(N)=O)NC(=O)[C@@H](N)CC(C)C)[C@@H](C)CC)C(=O)NCC(=O)N[C@H](C(=O)N[C@@H](CCSC)C(=O)N[C@@H](CC(C)C)C(=O)N[C@@H](CO)C(=O)N[C@@H](Cc1cnc[nH]1)C(=O)N[C@@H](CC(C)C)C(=O)N[C@@H](CC(N)=O)C(=O)O)C(C)C` [LNLKKILGKIGVMLSHLN], for which the MIC in the test with Escherichia coli came out at 0.402 µM (≈ 0.8 µg/mL); against Ralstonia solanacearum, 1.05 µM (≈ 2.1 µg/mL); against Pseudomonas tolaasii, 1.36 µM (≈ 2.7 µg/mL); in the test with Bacillus thuringiensis, 1.46 µM (≈ 2.9 µg/mL).
